The subject of this test is Granny Smith apples. Description: Anti-scald treatment on apples, treating composition applied for 3 minutes by immersion or spraying, then 8 days storage at 20° C. As for the experimental part:
The examples which follow illustrate the invention in further detail. In these examples, the treating composition, preheated to 50° C., is applied for 3 minutes to Granny Smith apples, by immersion or spraying. Treating composition (Composition A) consists of water and 1500 ppm of α-tocopherol. The treatment is carried out by applying the treating composition, brought to 50° C., to the apples for 3 minutes. The treated apples are then stored at ambient temperature (20° C.) for 8 days. The proportion of healthy apples, the proportion of apples for which less than 1 cm^2 of surface area is deteriorated by scald, and the proportion of apples for which more than 1 cm^2 of surface area is affected are then quantified. The apples are treated under the same conditions as in Example 1. By way of additional comparison, the same amount of apples was treated with composition D maintained at ambient temperature (i.e. between 20 and 22° C.). The apples thus treated were then stored for 8 days at ambient temperature (20° C.).

`Cc1c(C)c2c(c(C)c1O)CC[C@@](C)(CCC[C@H](C)CCC[C@H](C)CCCC(C)C)O2` [vitamin e, 5,7,8-trimethyltocol]: the “antioxidant activity at ambient temperature” value is “virtually zero”.

(Values after patent publication US6403139B1, “Process for treating fruit and vegetables using tocopherols as antioxidants” (Xeda International, priority 1999, dated 2002).)
